The target of one assay is PIM1 (Homo sapiens, UniProt P11309). Kind of assay: KinaseGlo Pim1 ATP depletion assay. The assay is classed as biochemical. Summed up: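 2.5 nM PIM1 preincubated 15 min with compound and 40 μM BAD peptide in 50 mM HEPES pH 7.5, 5 mM MgCl2, 1 mM DTT, 0.05% BSA, 2.5% DMSO. The reaction was started with 20 μM ATP (final) and run to about 50% ATP depletion. Remaining ATP read by KinaseGlo Plus luminescence to give IC50.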
Background: Kinase-Glo reads ATP consumption through a luciferase reaction.

The target of the next assay is PIM2 (Homo sapiens, UniProt Q9P1W9). Nature of the assay: KinaseGlo Pim2 ATP depletion assay. The assay is classed as biochemical. A digest of the protocol:
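Luminescent ATP-depletion read-out of PIM2 phosphorylating BAD peptide (RSRHSSYPAGT-OH). Final conditions: 5 nM PIM2, 4 μM ATP, 10 μM peptide, 2.5% DMSO in 50 mM HEPES pH 7.5, 5 mM MgCl2, 1 mM DTT, 0.05% BSA. Enzyme–peptide preincubated 15 min with compound; reaction run to ~50% ATP depletion.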

A further assay has as its target PIM3 (Homo sapiens, UniProt Q86V86). Kind of assay: KinaseGlo Pim3 ATP depletion assay. It counts as biochemical. Summed up:
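Kinase was preincubated 15 min with BAD peptide in HEPES pH 7.5/MgCl2/DTT/BSA before ATP was added. Final concentrations were 40 μM ATP, 100 μM BAD peptide and 2.5% DMSO, with 5 nM enzyme. The reaction ran to ~50% ATP depletion and remaining ATP was read by KinaseGlo Plus luminescence.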

In a further assay the target is GSK3β (Homo sapiens, UniProt P49841). Kind of assay: GSK3β ATP depletion assay. It counts as biochemical. Conditions: read-out: GSK3b IC50. A digest of the protocol:
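Human GSK3β (5 nM) preincubated 15 min with 10 μM biotinylated phospho-CREB peptide in pH 7.5 Tris buffer (15 mM MgCl2, 1 mM DTT, 0.1% BSA, 2.5% DMSO). Reaction started with 2 μM ATP and run to about 50% ATP depletion. Remaining ATP measured by KinaseGlo luminescence.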

Assay [1] relates to KMS11 (human myeloma cell line). Nature of the assay: Cell proliferation assay (CellTiter-Glo), KMS11. Particulars: KMS11-Luc cells. The assay is classed as cell-based. Summed up:
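KMS11 cells in IMDM with 10% FBS and sodium pyruvate, seeded at 2000 cells/well on assay day. Compound added at 2× to equal volume of cells, incubated 3 days at 37° C. Viability read by CellTiter-Glo luminescence; EC50 derived.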

PIM2, sequence (Q9P1W9 whole entry): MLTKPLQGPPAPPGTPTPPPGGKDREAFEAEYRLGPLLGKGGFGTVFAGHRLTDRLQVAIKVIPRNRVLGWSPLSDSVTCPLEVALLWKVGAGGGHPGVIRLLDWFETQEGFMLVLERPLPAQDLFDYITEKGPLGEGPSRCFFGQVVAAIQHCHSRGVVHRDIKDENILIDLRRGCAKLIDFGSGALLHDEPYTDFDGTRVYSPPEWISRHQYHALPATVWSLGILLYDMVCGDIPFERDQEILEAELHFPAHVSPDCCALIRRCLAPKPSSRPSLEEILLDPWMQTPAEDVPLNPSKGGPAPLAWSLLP
PIM1, sequence (P11309 whole entry): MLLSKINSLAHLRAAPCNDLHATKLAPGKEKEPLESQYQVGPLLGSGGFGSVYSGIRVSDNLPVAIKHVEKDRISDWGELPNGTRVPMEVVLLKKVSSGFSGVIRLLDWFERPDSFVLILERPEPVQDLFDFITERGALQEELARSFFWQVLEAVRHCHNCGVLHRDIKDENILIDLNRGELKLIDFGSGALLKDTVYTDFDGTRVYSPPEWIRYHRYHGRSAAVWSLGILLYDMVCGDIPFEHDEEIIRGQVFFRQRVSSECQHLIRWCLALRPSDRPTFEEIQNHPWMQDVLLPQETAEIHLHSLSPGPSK
GSK3β, sequence (P49841 whole entry, species assumed): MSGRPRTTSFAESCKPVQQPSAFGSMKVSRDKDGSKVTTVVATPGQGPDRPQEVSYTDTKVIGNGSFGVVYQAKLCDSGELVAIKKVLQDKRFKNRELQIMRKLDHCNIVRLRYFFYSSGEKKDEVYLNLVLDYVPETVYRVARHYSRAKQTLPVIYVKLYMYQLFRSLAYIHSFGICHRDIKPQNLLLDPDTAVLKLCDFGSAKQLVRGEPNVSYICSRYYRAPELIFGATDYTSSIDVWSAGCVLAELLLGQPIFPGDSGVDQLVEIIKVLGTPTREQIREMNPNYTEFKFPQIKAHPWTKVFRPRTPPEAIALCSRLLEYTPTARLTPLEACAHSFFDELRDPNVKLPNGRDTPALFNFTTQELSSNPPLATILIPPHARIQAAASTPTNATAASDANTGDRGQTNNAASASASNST

With `N#CC[C@H]1O[C@@H](c2ccncc2NC(=O)c2nc(-c3c(F)cccc3F)ncc2N)C[C@@H](O)[C@@H]1O` [Example 138, 5-amino-N-(4-((2R,4R,5S,6R)-6-(cyanomethyl)-4,5-dihydroxytetrahydro-2H-pyran-2-yl)pyridin-3-yl)-2-(2,6-difluorophenyl)pyrimidine-4-carboxamide], the IC50 (as a rule, the midpoint of a concentration-inhibition curve) against PIM1 stood at 0.024 µM; on PIM2, 0.027 µM; against PIM3, 0.014 µM; on GSK3β, 0.235 µM. The 50% effective concentration (EC50) – broadly, the midpoint of the concentration-response curve – in assay [1] (Homo sapiens, KMS-11) is above 10 µM.
Regarding `N#CC[C@H]1O[C@@H](c2ccncc2NC(=O)c2nc(-c3c(F)cccc3F)c(F)cc2N)C[C@@H](O)[C@@H]1O` [Example 139, 3-amino-N-(4-((2R,4R,5S,6R)-6-(cyanomethyl)-4,5-dihydroxytetrahydro-2H-pyran-2-yl)pyridin-3-yl)-6-(2,6-difluorophenyl)-5-fluoropicolinamide], the IC50 is 0.001 µM at PIM1, 0.005 µM against PIM2, 0.002 µM at PIM3 and 0.45 µM on GSK3β. In assay [1] (Homo sapiens, KMS-11), this compound had an EC50 above 10 µM.
On to `CC[C@H]1O[C@@H](c2ccncc2NC(=O)c2nc(-c3nccs3)ccc2N)C[C@@H](O)[C@@H]1O` [Example 140, 3-amino-N-(4-((2R,4R,5S,6R)-6-ethyl-4,5-dihydroxytetrahydro-2H-pyran-2-yl)pyridin-3-yl)-6-(thiazol-2-yl)picolinamide], for which the IC50 was 0.018 µM at PIM1, 0.054 µM on PIM2, 0.019 µM at PIM3 and 2.25 µM on GSK3β. Further, the EC50 in assay [1] (Homo sapiens, KMS-11) was above 10 µM.
In the same order, the values of `NC(=O)[C@H]1O[C@@H](c2ccncc2NC(=O)c2ccc(F)c(-c3c(F)cccc3F)n2)C[C@@H](O)[C@@H]1O` [Example 141, N-(4-((2R,4R,5S,6S)-6-carbamoyl-4,5-dihydroxytetrahydro-2H-pyran-2-yl)pyridin-3-yl)-6-(2,6-difluorophenyl)-5-fluoropicolinamide] are 0.181 µM, 0.72 µM, 0.094 µM, 3.36 µM and above 10 µM.
As for `NC(=O)C[C@H]1O[C@@H](c2ccncc2NC(=O)c2ccc(F)c(-c3c(F)cccc3F)n2)C[C@@H](O)[C@@H]1O` [Example 142, N-(4-((2R,4R,5S,6R)-6-(2-amino-2-oxoethyl)-4,5-dihydroxytetrahydro-2H-pyran-2-yl)pyridin-3-yl)-6-(2,6-difluorophenyl)-5-fluoropicolinamide], the IC50 at PIM1 is 1.08 µM; at PIM2 it was 6.6 µM; against PIM3, 0.89 µM; on GSK3β it was above 25 µM. This compound had an EC50 in assay [1] (Homo sapiens, KMS-11) above 10 µM.
Taken in the same sequence, the figures for `C=C[C@H]1OC(c2ccncc2NC(=O)c2nc(-c3c(F)cccc3F)ncc2N)=C[C@@H](O)[C@@H]1O` [Example 144, 5-amino-2-(2,6-difluorophenyl)-N-(4-((2R,3S,4R)-3,4-dihydroxy-2-vinyl-3,4-dihydro-2H-pyran-6-yl)pyridin-3-yl)pyrimidine-4-carboxamide] were 0.0053 µM, 0.0037 µM, 0.0043 µM, 0.394 µM and 4.34 µM.
In the case of `CC[C@H]1O[C@@H](c2ccncc2NC(=O)c2nc(-c3nccs3)ccc2N)C[C@@H](O)[C@@H]1O` [Example 145, 3-amino-N-(4-((2R,4R,5S,6R)-6-ethyl-4,5-dihydroxytetrahydro-2H-pyran-2-yl)pyridin-3-yl)-6-(thiazol-2-yl)picolinamide], the IC50 is 0.0184 µM at PIM1, 0.0575 µM on PIM2, 0.0194 µM on PIM3 and 2.25 µM on GSK3β. Also, the EC50 in assay [1] is above 10 µM.
Consider `C[C@H]1O[C@@H](c2ccncc2NC(=O)c2nc(-c3c(F)cccc3F)ncc2N)C[C@@H](O)[C@]1(C)O` [Example 146, 5-amino-2-(2,6-difluorophenyl)-N-(4-((2R,4R,5S,6R)-4,5-dihydroxy-5,6-dimethyltetrahydro-2H-pyran-2-yl)pyridin-3-yl)pyrimidine-4-carboxamide], for which the IC50 against PIM1 amounted to 0.0057 µM; on PIM2, 0.0095 µM; against PIM3 it was 0.0051 µM; on GSK3β it was 0.345 µM. This compound came in with an EC50 in assay [1] (Homo sapiens, KMS-11) above 10 µM.
Regarding `C[C@H]1O[C@@H](c2ccncc2NC(=O)c2nc(-c3nccs3)ccc2N)C[C@@H](O)[C@]1(C)O` [Example 147, 3-amino-N-(4-((2R,4R,5S,6R)-4,5-dihydroxy-5,6-dimethyltetrahydro-2H-pyran-2-yl)pyridin-3-yl)-6-(thiazol-2-yl)picolinamide], the IC50 on PIM1 is 0.0174 µM; on PIM2 it was 0.0713 µM; against PIM3, 0.0185 µM; at GSK3β it was 1.32 µM. This compound also displayed an EC50 in assay [1] (Homo sapiens, KMS-11) above 10 µM.
With `N#C[C@H]1O[C@@H](c2ccncc2NC(=O)c2nc(-c3c(F)cccc3F)ncc2N)C[C@@H](O)[C@@H]1O` [Example 148, 5-amino-N-(4-((2R,4R,5S,6R)-6-cyano-4,5-dihydroxytetrahydro-2H-pyran-2-yl)pyridin-3-yl)-2-(2,6-difluorophenyl)pyrimidine-4-carboxamide], the IC50 came to 0.0297 µM at PIM1, 0.0303 µM on PIM2, 0.0204 µM on PIM3 and 0.691 µM at GSK3β. Besides, the EC50 in assay [1] (Homo sapiens, KMS-11) was above 10 µM.
Taken in the same sequence, the figures for `N#C[C@H]1O[C@@H](c2ccncc2NC(=O)c2ccnc(-c3c(F)cccc3F)n2)C[C@@H](O)[C@@H]1O` [Example 149, N-(4-((2R,4R,5S,6R)-6-cyano-4,5-dihydroxytetrahydro-2H-pyran-2-yl)pyridin-3-yl)-2-(2,6-difluorophenyl)pyrimidine-4-carboxamide] were 0.0798 µM, 0.458 µM, 0.143 µM, 0.209 µM and above 10 µM.
Taken in the same sequence, the figures for `N#C[C@H]1O[C@@H](c2ccncc2NC(=O)c2nc(-c3nccs3)ccc2N)C[C@@H](O)[C@@H]1O` [Example 150, 3-amino-N-(4-((2R,4R,5S,6R)-6-cyano-4,5-dihydroxytetrahydro-2H-pyran-2-yl)pyridin-3-yl)-6-(thiazol-2-yl)picolinamide] were 0.0571 µM, 0.156 µM, 0.0533 µM, 0.207 µM and above 10 µM.
Taken in the same sequence, the figures for `Nc1cc(F)c(-c2ccccc2F)nc1C(=O)Nc1cnccc1C1=CC(=O)[C@H](O)[C@@H](CCl)O1` [Example 151, 3-amino-N-(4-((2S,3R)-2-(chloromethyl)-3-hydroxy-4-oxo-3,4-dihydro-2H-pyran-6-yl)pyridin-3-yl)-5-fluoro-6-(2-fluorophenyl)picolinamide] were 0.0052 µM, 0.0842 µM, 0.0251 µM, 1.43 µM and above 10 µM.
On to `N#CC[C@H]1O[C@@H](c2ccncc2NC(=O)c2nc(-c3c(F)cccc3F)c(F)cc2N)C[C@@H](O)[C@@H]1O` [Example 152, 3-amino-N-(4-((2R,4R,5S,6R)-6-(cyanomethyl)-4,5-dihydroxytetrahydro-2H-pyran-2-yl)pyridin-3-yl)-6-(2,6-difluorophenyl)-5-fluoropicolinamide], for which the IC50 against PIM1 amounted to 0.0013 µM; against PIM2 it was 0.0054 µM; on PIM3, 0.0023 µM; at GSK3β it was 0.45 µM. In assay [1], the EC50 was above 10 µM.

The values are drawn from patent US20130109682A1, “CYCLIC ETHER COMPOUNDS USEFUL AS KINASE INHIBITORS” (NOVARTIS AG, priority 2010, published 2013).
